Reference: patent US6737383B1, “Herbicidal oxadiazolidines” (priority 1999, dated 2004)

Columns and labels:
velvetleaf = assay: Test B pre/postemergence velvetleaf; format: in vivo, Abutilon theophrasti
Procedure, shortened: (§1)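 Response is a visual 0-to-10 score relative to untreated plants, where 0 means no effect and 10 means complete control, taken twelve to sixteen days after application. Treatments went onto soil at planting and onto foliage of 1- to 4-leaf plants, using a surfactant-containing non-phytotoxic solvent.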

soybean = assay: Test B pre/postemergence soybean; format: in vivo, Glycine max
Procedure, shortened: as §1

corn = assay: Test B pre/postemergence corn; format: in vivo, Zea mays
Procedure, shortened: as §1

bamyardgrass = assay: Test B flood test barnyardgrass; format: in vivo, Echinochloa crus-galli; conditions: for Plant response rating, Barnyardgrass: scale 0 to 10, 0 is no effect, 10 is complete control; for Barnyardgrass plant response rating: scale of 0 to 10 where 0 is no effect and 10 is complete control
Procedure, shortened: (§2)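 Read-out is a visual response score from 0 (no effect) to 10 (complete control), assigned by comparison with untreated controls. Treatment was applied at the 2-leaf stage, and plants stayed in the greenhouse for twelve to sixteen days before scoring.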

cocklebur = assay: Test B pre/postemergence cocklebur; format: in vivo, Xanthium strumarium
Procedure, shortened: as §1

surinam grass = assay: Test B pre/postemergence surinam grass; format: in vivo, Brachiaria decumbens
Procedure, shortened: as §1

wild oat = assay: Test B pre/postemergence wild oat; format: in vivo, Avena fatua
Procedure, shortened: as §1

wheat = assay: Test B pre/postemergence wheat; format: in vivo, Triticum aestivum
Procedure, shortened: as §1

sugar beet = assay: Test B pre/postemergence sugar beet; format: in vivo, Beta vulgaris
Procedure, shortened: as §1

giant foxtail = assay: Test B pre/postemergence giant foxtail; format: in vivo, Setaria faberii
Procedure, shortened: as §1

purple nutsedge = assay: Test B pre/postemergence purple nutsedge; format: in vivo, Cyperus rotundus
Procedure, shortened: as §1

rape = assay: Test B pre/postemergence rape; format: in vivo, Brassica napus
Procedure, shortened: as §1

smallflower flatsedge = assay: Test B flood test smallflower flatsedge; format: in vivo, Cyperus difformis
Procedure, shortened: as §2

crabgrass = assay: Test B pre/postemergence crabgrass; format: in vivo, Digitaria sanguinalis
Procedure, shortened: as §1

duck salad = assay: Test B flood test duck salad; format: in vivo, Heteranthera limosa; conditions: for Plant response rating, Ducksalad: scale 0 to 10, 0 is no effect, 10 is complete control; for Ducksalad plant response rating: scale of 0 to 10 where 0 is no effect and 10 is complete control
Procedure, shortened: as §2

blackgrass = assay: Test B pre/postemergence blackgrass; format: in vivo, Alopecurus myosuroides
Procedure, shortened: as §1

pigweed = assay: Test B pre/postemergence pigweed; format: in vivo, Amaranthus retroflexus
Procedure, shortened: as §1

morningglory = assay: Test B pre/postemergence morningglory; format: in vivo, Ipomoea hederacea
Procedure, shortened: as §1

rice = assay: Test B flood test rice; format: in vivo, Oryza sativa
Procedure, shortened: as §2

[1] = Postemergence, Rate 250 g/ha, scale 0 to 10, 0 is no effect, 10 is complete control
[2] = Postemergence, Rate 500 g/ha, scale of 0 to 10 where 0 is no effect and 10 is complete control
[3] = Preemergence, Rate 62 g/ha, scale 0 to 10 (0 no effect, 10 complete control)
[4] = Preemergence, Rate 125 g/ha, scale of 0 to 10 where 0 is no effect and 10 is complete control
[5] = Preemergence, Rate 250 g/ha, scale 0 to 10, 0 is no effect, 10 is complete control
[6] = Preemergence, Rate 500 g/ha, scale 0 to 10, 0 is no effect, 10 is complete control
[7] = Postemergence, Rate 125 g/ha, scale 0 to 10, 0 is no effect, 10 is complete control
[8] = Rate 62 g/ha, Postemergence, scale of 0 to 10 where 0 is no effect and 10 is complete control
[9] = Postemergence (flood test), Rate 125 g/ha
[10] = Postemergence section (flood test species), Rate 500 g/ha
[11] = Rate 62 g/ha, Postemergence (flood test species)
[12] = flood test species, listed under Postemergence, Rate 250 g/ha
[13] = Preemergence, Rate 250 g/ha, scale of 0 to 10 where 0 is no effect and 10 is complete control
[14] = Postemergence section (flood test species), Rate 500 g/ha, scale of 0 to 10 where 0 is no effect and 10 is complete control
[15] = flood test species, listed under Postemergence, Rate 250 g/ha, scale 0 to 10, 0 is no effect, 10 is complete control

**Q.** Which results are given for `CC(C)N(C(=O)n1oc(=O)n(CCBr)c1=O)c1ccccc1` [Compound 415]?
**A.** Plant response rating, Velvetleaf (velvetleaf; [1]): 2; Velvetleaf plant response rating (velvetleaf; [2]): 2; Plant response rating, Velvetleaf (velvetleaf; [3]): 0; Plant response rating, Velvetleaf (velvetleaf; [4]): 2; Velvetleaf plant response rating (velvetleaf; [5]): 6; Velvetleaf plant response rating (velvetleaf; [6]): 7; Plant response rating, Soybean (soybean; [1]): 4; Soybean plant response rating (soybean; [2]): 7; Plant response rating, Soybean (soybean; [3]): 0; Plant response rating, Soybean (soybean; [4]): 0; Soybean plant response rating (soybean; [5]): 0; Soybean plant response rating (soybean; [6]): 0; Plant response rating, Corn (corn; [7]): 0; Plant response rating, Corn (corn; [1]): 1; Corn plant response rating (corn; [2]): 2; Plant response rating, Corn (corn; [3]): 0; Plant response rating, Corn (corn; [4]): 2; Corn plant response rating (corn; [5]): 3; Corn plant response rating (corn; [6]): 4; Corn plant response rating (corn; [8]): 0; Plant response rating, Barnyardgrass (bamyardgrass; [9]): 0; Barnyardgrass plant response rating (bamyardgrass; [10]): 0; Barnyardgrass plant response rating (bamyardgrass; [11]): 0; Plant response rating, Barnyardgrass (bamyardgrass; [12]): 0; Plant response rating, Cocklebur (cocklebur; [7]): 0; Plant response rating, Cocklebur (cocklebur; [1]): 1; Cocklebur plant response rating (cocklebur; [2]): 4; Plant response rating, Cocklebur (cocklebur; [3]): 0; Plant response rating, Cocklebur (cocklebur; [4]): 0; Cocklebur plant response rating (cocklebur; [5]): 0; Cocklebur plant response rating (cocklebur; [6]): 0; Cocklebur plant response rating (cocklebur; [8]): 0; Plant response rating, B. signalgrass (surinam grass; [7]): 0; Plant response rating, B. signalgrass (surinam grass; [1]): 2; B. signalgrass plant response rating (surinam grass; [2]): 6; Plant response rating, B. signalgrass (surinam grass; [3]): 2; Plant response rating, B. signalgrass (surinam grass; [4]): 3; B. signalgrass plant response rating (surinam grass; [13]): 6; B. signalgrass plant response rating (surinam grass; Preemergence, Rate 500 g/ha, scale of 0 to 10 where 0 is no effect and 10 is complete control): 6; B. signalgrass plant response rating (surinam grass; [8]): 0; Wild oats plant response rating (wild oat; [2]): 3; Plant response rating, Wild oats (wild oat; [3]): 0; Plant response rating, Wild oats (wild oat; [4]): 3; Wild oats plant response rating (wild oat; [5]): 6; Wild oats plant response rating (wild oat; [6]): 6; Wheat plant response rating (wheat; [2]): 3; Plant response rating, Wheat (wheat; [3]): 0; Plant response rating, Wheat (wheat; [4]): 0; Wheat plant response rating (wheat; [5]): 2; Wheat plant response rating (wheat; [6]): 3; Plant response rating, Sugarbeets (sugar beet; [1]): 0; Sugarbeets plant response rating (sugar beet; [2]): 0; Plant response rating, Sugarbeets (sugar beet; [3]): 0; Plant response rating, Sugarbeets (sugar beet; [4]): 0; Sugarbeets plant response rating (sugar beet; [5]): 6; Sugarbeets plant response rating (sugar beet; [6]): 8; Plant response rating, Giant foxtail (giant foxtail; [7]): 8; Plant response rating, Giant foxtail (giant foxtail; [1]): 9; Giant foxtail plant response rating (giant foxtail; [2]): 9; Plant response rating, Giant foxtail (giant foxtail; [3]): 9; Plant response rating, Giant foxtail (giant foxtail; [4]): 10; Giant foxtail plant response rating (giant foxtail; [5]): 10; Giant foxtail plant response rating (giant foxtail; [6]): 10; Giant foxtail plant response rating (giant foxtail; [8]): 5; Plant response rating, Nutsedge (purple nutsedge; [1]): 0; Nutsedge plant response rating (purple nutsedge; [2]): 0; Plant response rating, Nutsedge (purple nutsedge; [3]): 0; Plant response rating, Nutsedge (purple nutsedge; [4]): 0; Nutsedge plant response rating (purple nutsedge; [5]): 0; Nutsedge plant response rating (purple nutsedge; [6]): 0; Plant response rating, Rape (rape; [1]): 0; Rape plant response rating (rape; [2]): 1; Plant response rating, Rape (rape; [3]): 2; Plant response rating, Rape (rape; [4]): 6; Rape plant response rating (rape; [5]): 10; Rape plant response rating (rape; [6]): 10; S. Flatsedge plant response rating (smallflower flatsedge; [14]): 3; Plant response rating, S. Flatsedge (smallflower flatsedge; [15]): 3; Plant response rating, Crabgrass (crabgrass; [7]): 1; Plant response rating, Crabgrass (crabgrass; [1]): 8; Crabgrass plant response rating (crabgrass; [2]): 9; Plant response rating, Crabgrass (crabgrass; [3]): 8; Plant response rating, Crabgrass (crabgrass; [4]): 8; Crabgrass plant response rating (crabgrass; [5]): 9; Crabgrass plant response rating (crabgrass; [6]): 10; Crabgrass plant response rating (crabgrass; [8]): 0; Plant response rating, Ducksalad (duck salad; [9]): 0; Ducksalad plant response rating (duck salad; [10]): 0; Ducksalad plant response rating (duck salad; [11]): 0; Plant response rating, Ducksalad (duck salad; [12]): 0; Plant response rating, Blackgrass (blackgrass; [7]): 3; Plant response rating, Blackgrass (blackgrass; [1]): 8; Blackgrass plant response rating (blackgrass; [2]): 9; Plant response rating, Blackgrass (blackgrass; [3]): 5; Plant response rating, Blackgrass (blackgrass; [4]): 5; Blackgrass plant response rating (blackgrass; [13]): 9; Blackgrass plant response rating (blackgrass; [6]): 9; Blackgrass plant response rating (blackgrass; [8]): 0; Plant response rating, Redroot pigweed (pigweed; [1]): 0; Redroot pigweed plant response rating (pigweed; [2]): 3; Plant response rating, Redroot pigweed (pigweed; [3]): 0; Plant response rating, Redroot pigweed (pigweed; [4]): 0; Redroot pigweed plant response rating (pigweed; [5]): 6; Redroot pigweed plant response rating (pigweed; [6]): 10; Plant response rating, Morningglory (morningglory; [1]): 6; Morningglory plant response rating (morningglory; [2]): 7; Plant response rating, Morningglory (morningglory; [3]): 0; Plant response rating, Morningglory (morningglory; [4]): 0; Morningglory plant response rating (morningglory; [5]): 0; Morningglory plant response rating (morningglory; [6]): 0; Rice plant response rating (rice; [14]): 0; Plant response rating, Rice (rice; [15]): 0
